Measurements: patent US6221860A, “Beta-lactam inhibitors of CoA-IT” (SmithKline Beecham Corporation, priority 1999, dated 2001)

Assays:
[1] = system: CoA-IT; assay: Microsomal CoA-IT activity assay (U937 cell microsomes); format: biochemical; conditions: increased uM or longer pretreatment time
Description: The following is a method to measure CoA-IT activity and the effects of compounds on CoA-IT activity. The assay is based upon mixing cellular material containing CoA-IT activity with a stable lyso phospholipid such as 1-alkyl-2-acyl-GPC and measuring the production of phospholipid product such as 1-alkyl-2-acyl-GPC occurring in the absence of added CoA or CoA-fatty acids.
Any inflammatory cell that contains high levels of COA-IT activity can be used, such as neutrophils, macrophages or cell lines such as U937 cells. U937 cells were obtained from American Type Culture Collection and grown in RPMI- 1640 media (Gibco, Grand Island, N.Y.) supplemented with 10% fetal bovine serum (Hyclone, Logan, Utah) at 37° C., 5% CO2. Cells were grown without differentiation (basal state) by any agent, such as dimethyl sulfoxide.
Microsomes were prepared using standard techniques. […]
CoA-lT activity was measured in 1.5 ml centrifuge tubes in a total volume of 100 ul. […] An aliquot of the chloroform-extracted materials were separated, usually by TLC in chloroform/methanol/acetic acid/water (50:25:8:4, v/v), visualized by radioscanning (Bioscan) and the product, [^3 H]1-alkyl-2-acyl-GPC, was scraped and quantified by liquid scintillation spectroscopy. […]
Protein concentration were assessed using the protein assay reagents from Bio-Rad (Richmond, Calif.).

[2] = system: phorbol ester-induced inflammation in mouse ear; assay: TPA-induced mouse ear inflammation (ear edema and MPO); format: in vivo; conditions: topical, Balb/c mice
Description: Male Balb/c inbred mice were obtained from Charle River Breeding Laboratories (Kingston, N.Y.). Within a single experiment mice (22-25 g) were age-matched. These in vivo experiments typically involved use of 5-6 animals/group.
TPA (12-O-tetradecanoylphorbol 13-acetate) (Sigma Chemical Company) in acetone ([…]) was applied to the inner and outer surfaces of the left ear of BALB/c male mice. The thickness of both ears was then measured with a dial micrometer (Mitutoyo, Japan) at both 2 and 4 hours after treatment, and the data expressed as the change in thickness (10^-3 cm) between treated and untreated ears. […] After measuring the edema, the inflammed left ears were removed and stored at -70° C. until they were assayed for MPO (myeloperoxidase) activity where appropriate.
On the day of the assay, partially thawed ear tissues were minced and then homogenized (10% w/v) with a Tissumnizer homogenizer (Tekmar Co.) in 50 mM phosphate buffer (pH 6) containing 0.5% HTAB. […] Supernatant MPO activity was quantified kinetically (change in absorbance measured over 3 min, sampled at 15-sec intervals) using a Beckman DU-7 spectrophotometer and a Kinetics Analysis package (Beckman Instruments, Inc.). […]
Balb/c mice were given PMA followed by the test compound. The edematous response was measured using a thickness gauge 4 hrs post PMA application. […]

## COC(=O)CCCO[C@@H]1NC(=O)[C@H]1NC(c1ccccc1)(c1ccccc1)c1ccccc1 [Example 17, (3S,4S)-4-[3-(Methoxycarbonyl)propoxy]-3-(triphenylmethylamino)azetidin-2-one]
[1]
  activity in CoA-IT assay at increased concentration or longer pretreatment: active at either increased uM or longer pretreatment time

## C[C@@H]1C[C@H]2[C@@H]3CCC4=CC(=O)C=C[C@]4(C)[C@@]3(F)[C@@H](O)C[C@]2(C)[C@@]1(O)C(=O)CO [dexamethasone, reference compound]
[2]; 4 hrs post PMA application
  Edema @ 4 hr ED50: 0.06 mg/ear
[2]; inflamed ears harvested after the 4 hr edema measurement
  MPO response ED50: 0.03 mg/ear
